Some results are limits rather than exact numbers.

The target in the data set is T1, human TLR9 (Homo sapiens, UniProt Q9NR96, H530R/Q688R).
T1 construct: expressed in transfected cells
T1 sequence (Q9NR96 26-1032 H530R/Q688R): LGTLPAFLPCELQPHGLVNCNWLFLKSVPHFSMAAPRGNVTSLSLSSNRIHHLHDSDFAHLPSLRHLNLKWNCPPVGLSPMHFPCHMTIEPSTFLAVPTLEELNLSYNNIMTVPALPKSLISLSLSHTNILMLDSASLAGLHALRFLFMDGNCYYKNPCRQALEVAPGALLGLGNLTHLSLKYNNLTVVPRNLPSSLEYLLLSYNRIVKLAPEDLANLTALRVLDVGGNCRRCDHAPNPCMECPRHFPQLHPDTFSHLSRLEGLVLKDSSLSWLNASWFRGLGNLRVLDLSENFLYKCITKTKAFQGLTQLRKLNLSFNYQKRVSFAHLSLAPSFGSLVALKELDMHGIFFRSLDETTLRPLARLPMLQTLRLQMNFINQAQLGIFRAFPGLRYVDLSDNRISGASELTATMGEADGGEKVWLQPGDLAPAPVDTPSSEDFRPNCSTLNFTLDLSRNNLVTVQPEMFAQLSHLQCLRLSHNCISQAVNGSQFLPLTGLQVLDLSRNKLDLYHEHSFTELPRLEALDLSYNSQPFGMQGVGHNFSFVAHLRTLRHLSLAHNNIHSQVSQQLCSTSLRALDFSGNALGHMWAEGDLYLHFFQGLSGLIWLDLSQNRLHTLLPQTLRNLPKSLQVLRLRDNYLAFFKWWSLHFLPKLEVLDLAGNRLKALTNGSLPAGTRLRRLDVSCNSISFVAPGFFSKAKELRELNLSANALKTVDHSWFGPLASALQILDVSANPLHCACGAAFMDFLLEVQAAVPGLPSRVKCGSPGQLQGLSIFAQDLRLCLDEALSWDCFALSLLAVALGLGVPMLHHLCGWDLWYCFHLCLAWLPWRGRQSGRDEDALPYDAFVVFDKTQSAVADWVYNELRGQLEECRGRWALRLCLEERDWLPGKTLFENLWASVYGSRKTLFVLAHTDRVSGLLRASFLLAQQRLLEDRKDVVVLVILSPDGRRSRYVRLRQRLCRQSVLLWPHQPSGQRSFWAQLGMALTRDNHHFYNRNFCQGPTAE
Nature of the data set: NF-κB-luciferase activation in 293 cells transfected with human TLR9 (293-hTLR9-luc). In kind it is cell-based. Particulars: for EC50: ODN concentration of half-maximal activation, 293-hTLR9-luc cells, NF-κB-driven luciferase readout, 12 hours, read-out: 293-hTLR9 Kac; for NF-κB activation by luciferase readout: 293 cells transiently transfected with hTLR9 and NF-κB-luc, 8 h, ODN 2 μM, LPS 100 ng/ml. The source says:
Since NF-κB activation is central to the IL-1/TLR signal transduction pathway (Medzhitov R et al., Mol Cell 2:253-258 (1998); Muzio M et al., J Exp Med 187:2097-2101 (1998)), cells were transfected with hTLR9 or co-transfected with hTLR9 and a NF-κB-driven luciferase reporter construct. Human fibroblast 293 cells were transiently transfected with (FIG. 1A) hTLR9 and a six-times NF-κB-luciferase reporter plasmid (NF-κB-luc, kindly provided by Patrick Baeuerle, Munich, Germany) or (FIG. 1B) with hTLR9 alone. After stimulus with CpG-ODN (2006, 2 μM, […], SEQ ID NO:112), GpC-ODN (2006-GC, 2 μM, […], SEQ ID NO:118), LPS (100 ng/ml) or media, NF-κB activation by luciferase readout (8 h, FIG. 1A) or IL-8 production by ELISA (48 h, FIG. 1B) were monitored. Results are representative of three independent experiments.
To generate stable clones expressing human TLR9, murine TLR9, or either TLR9 with the NF-κB-luc reporter plasmid, 293 cells were transfected in 10 cm plates (2×10^6 cells/plate) with 16 μg of DNA and selected with 0.7 mg/ml G418 (PAA Laboratories GmbH, Cölbe, Germany). The clones were also screened for IL-8 production or NF-κB-luciferase activity after stimulation with ODN. Four different types of clones were generated. • 293-hTLR9-luc: expressing human TLR9 and 6-fold NF-κB-luciferase reporter • 293-mTLR9-luc: expressing murine TLR9 and 6-fold NF-κB-luciferase reporter • 293-hTLR9: expressing human TLR9 • 293-mTLR9: expressing murine TLR9 […]
Because stable TLR9 transfectants mirrored primary cell responsiveness to CpG-DNA (FIGS. 4 and 5), it was hypothesized that stable transfectants could potentially discern species-specific CpG-motifs through TLR9 receptors. Therefore 293-hTLR9-luc (expressing human TLR9 and 6-fold NF-κB-luc reporter), 293-mTLR9-luc (expressing murine TLR9 and 6-fold NF-κB-luc reporter), 293-hTLR9 (expressing human TLR9) and 293-mTLR9 (expressing murine TLR9) clones were tested for CpG-DNA motif responsiveness. […] Depicted are both NF-κB-driven luciferase and IL-8 production as readout. […] After lysis of the cells luciferase can be detected photometrically based on an enzymatic reaction by luciferase which creates photons. IL-8 production was monitored using enzyme-linked immunosorbent assay (ELISA). FIG. 11 depicts clones stimulated with ODN 2006 (filled circle), ODN 2006-GC (open circle), ODN 1668 (filled triangle) or ODN 1668-GC (open triangle) at indicated concentrations and NF-κB activation or IL-8 production were measured after 10 and 48 hours, respectively. Results shown in FIG. 11 are representative of three independent experiments. Strikingly, CpG-motif sequence specificity was conferred in a species-specific manner by TLR9. Additionally, the half-maximal concentration for either 2006 or 1668 appears nearly the same as those determined on primary cells (compare FIG. 10 and FIG. 11).
Although 2006 and 1668 are discussed in terms of CpG-motif differences, they are very different in several aspects (see Table 5 for comparison). The lengths are different, 24 versus 20 nucleotides, and 2006 has four CG dinucleotides compared to one in 1668. Additional differences are the CG position relative to the 5′ and 3′ ends and also 5′ sequence differences. In order to determine if motif specificity is a quality of the motif and not the global sequence environment, for this experiment several sequences were produced holding these variables constant. As a starting point, the 1668 sequence was modified by converting the central C to T and the distal TG to CG, thereby creating a second CG in the resulting sequence 5000 (SEQ ID NO:130, Table 5). Then point nucleotide changes were made, progressing toward a 2006-like sequence, 5007 (SEQ ID NO:98). The ODN 5002 (SEQ ID NO:132) is most like 1668 with the exception that C's at positions 12 and 19 have been converted to T's. […]

In the case of “TCCATGACGTTCCTGATGCT (listed as DNA, chemistry not fully specified) [ODN 1668]”, the EC50 is above 10 µM. For the substance “TCCATGACGTTCTTGACGCT (listed as DNA, chemistry not fully specified) [ODN 5000]”, the EC50 stood at 10 µM. For the substance “TCCATGACGTTCTTGACGTT (listed as DNA, chemistry not fully specified) [ODN 5001]”, the EC50 was 7 µM. Still for that read-out and setting: the result for “TCCATGAGCTTCCTGATGCT (listed as DNA, chemistry not fully specified) [ODN 1668-GC]” reads above 10 µM. On to “TCCATGTCGTTCTTGATGTT (listed as DNA, chemistry not fully specified) [ODN 5004]”, for which the EC50 was 5 µM. For “TCCATGTCGTTTTTGATGTT (listed as DNA, chemistry not fully specified) [ODN 5005]”, the EC50 amounted to 3 µM.

For “TCCATGTCGTTTTTGTCGTT (listed as DNA, chemistry not fully specified) [ODN 5007]”, the EC50 is 0.7 µM. On the same count and under the same terms, the result for “TCCATGTCGTTTTTGTTGTT (listed as DNA, chemistry not fully specified) [ODN 5006]” reads 3 µM. With TCGTCGTTTTGTCGTTTTGTCGTT [ODN 2006], the “NF-κB activation by luciferase readout” value is on record as “responded” and the EC50 turned out to be 0.4 µM. Moreover, the “human TLR9 signaling response” value (CpG-ODN 2006 compared with CpG-ODN 1668) is recorded as “significantly stronger”. In the case of “TGCTGCTTTTGTGCTTTTGTGCTT (listed as DNA, chemistry not fully specified) [ODN 2006-GC]”, the EC50 was above 10 µM.

For the substance lipopolysaccharide [LPS], the “NF-κB activation by luciferase readout” value is “not”.

The values are drawn from patent US7820379B2, “Process for high throughput screening of CpG-based immuno-agonist/antagonist” (Coley Pharmaceutical GmbH, priority 2000, dated 2010).
